The record followed here is patent US5414001A, “Antineoplastic pyrrolo[4,3,2-de]quinolin-8(1H)-ones” (American Cyanamid Company, priority 1993, dated 1995).

Structures can show the parent of a compound that is named as a salt. Where two headings read alike, the source gives them in different places.

For data set [1], the system named is panel of >20 human tumor cell lines. Briefly: In vitro tumor panel evaluation, Sulforhodamine B (SRB) cytotoxicity assay. It counts as cell-based. Conditions: for IC50: Homo sapiens. (In general: Sulforhodamine B stains cellular protein and so reports cell mass.)
The test system of data set [2] is DDP (Cisplatin resistant ovarian carcinoma cell line) / S (A2780). Briefly: SRB cytotoxicity ratio DDP/S (cisplatin resistance). Conditions: 2880 min. Format: cell-based, human.
A further data set deals with HCT15 / SKBR3. Put plainly: SRB cytotoxicity ratio HCT15/SKBR3 (topoisomerase resistance). It counts as cell-based, human. Particulars: 2880 min.
A further data set deals with CaCo2 / CX1. Particulars: human, Caco-2, 48 h.
Another data set concerns MIP / SW620. Put plainly: SRB cytotoxicity ratio MIP/SW620 (MDR, P-glycoprotein resistance). It counts as cell-based, human. Conditions: 2880 min.
Setting [3] is: Mean IC50 value for all 20 cell lines, 48 hours.
Setting [4] is: IC50 resistant / IC50 sensitive cell line, cisplatin resistance.
Setting [5] is: IC50 resistant / IC50 sensitive cell line, topoisomerase resistance.
The mark [6] stands for this setting: human, ddp/s ovarian carcinoma cells.
Where [7] appears, read: Mean IC50 value for all 20 cell lines, 48 hours, read-out: AVG IC50.
Where [8] appears, read: least sensitive cell line, 48 hours, read-out: MAX IC50.
The mark [9] stands for this setting: most sensitive cell line, 48 hours, read-out: MIN IC50.
Setting [10] is: IC50 resistant / IC50 sensitive cell line, MDR (pglycoprotein) resistance.

Experimental for CaCo2 / CX1: The cytotoxic activity of the pyrrolo[4,3,2-de]quinolin-8(1H)-ones against a panel of >20 human tumor cell lines is determined using the Sulforhodamine B protein dye-binding colorimetric cytotoxicity assay (SRB) described by Skehan et al. (Journal National Cancer Institute 82:1107-1112, 1990), as modified by Monks et al., (Journal National Cancer Institute 83: 757-766, 1991). […] Positive controls (i.e., etoposide) are included in every experiment. Treatments are for 48 hours, after which cells are fixed in 10% trichloroacetic acid (10% final concentration), washed five times with deionized water and stained with SRB solution (0.4% in glacial acetic acid). Protein-bound stain is solubilized with 0.1 ml tris buffer and the adsorbance values are recorded with a microplate reader. Duplicate plates of cells are fixed with trichloroacetic acid at the time of drug addition to establish To values, as described by Monks et al. (JNCl, 83: 757-766, 1991). The effect of drug treatments over the five-long range of concentrations is calculated using the formula, T--To/C--To, to determine the IC50 values.
3) The ratio values for DDP/S; CaCo2/CX1; MIP/SW620, and; HCT15/SKBR3 refer to the IC50 value for resistant cell lines included in the tumor cell panel, divided by the IC50 value for corresponding drug sensitive cell lines. For example, DDP is a Cisplatin resistant ovarian carcinoma cell line, and S is the corresponding parent drug sensitive ovarian carcinoma cell line (A2780). […] CaCo2 is a slow growing non P-glycoprotein multidrug resistant colon carcinoma cell line. MIP is a colon carcinoma cell line that expresses P-glycoprotein and is multidrug resistant; SW620 is a drug sensitive colon carcinoma cell line. HCT15 is a colon carcinoma cell line that is resistant to topoisomerase inhibitors and SKBR3 is a breast carcinoma that is very sensitive to topoisomerase inhibitors.

Take “7-(Cyclohexylamino)-1,3,4,8-tetrahydro-5-methyl-8-oxo-pyrrolo[4,3,2-de]quinolinium trifluoroacetate [Example 41]”: in data set [1] (setting [3]), the “AVG IC50” value is 6.5 µg/mL. Moreover, the “DDP/S IC50 ratio” value in data set [2] (setting [4]) was 1.8. The “HCT15/SKBR3 IC50 ratio” value in the data set with HCT15 / SKBR3 (setting [5]) is on record as 737.0. Besides, in the data set on CaCo2 / CX1, the “CaCO2/CX1 IC50 ratio” value is listed as 8.3.

With `CC(CCC(C)NC1=CC2=[N+](C)CCc3c[nH]c(c32)C1=O)NC1=CC2=[N+](C)CCc3c[nH]c(c32)C1=O` (racemic) [Example 57, 7,7'-(1,4-Dimethyl-1,4-butanediyldiimino)-bis[1,3,4,8-tetrahydro-5-methyl-8-oxo-pyrrolo[4,3,2-de]quinolinium trifluoroacetate], the IC50 (commonly the point on the concentration scale where inhibition reaches its midpoint) in data set [1] (48 h, read-out: AVG IC50) turned out to be 13 µg/mL; in data set [1] (48 h, read-out: MAX IC50) it was 50 µg/mL; in data set [1] (48 h, read-out: MIN IC50), 0.43 µg/mL. In data set [2] (setting [6]), the “DDP/S IC50 ratio” value is 1.8. In addition, in the data set with HCT15 / SKBR3 (human, hct15/skbr3 cells), the “HCT15/SKBR3 IC50 ratio” value is recorded as 32.1. In addition, the “CaCO2/CX1 IC50 ratio” value in the data set on CaCo2 / CX1 was 100.8.

Take `O=C1CC2SC3CC2(C=C1Br)C1=C(N3)C(=O)c2[nH]cc3c2C1=NCC3` (stereo not shown) [Example 9, discorhabdin A]: the “DDP/S IC50 ratio” value in data set [2] (setting [6]) is listed as 1.4.

Turning to `C[N+]1=C2C(Cl)=C(N)C(=O)c3[nH]cc(c32)CC1` [Example 10, 7-Amino-6-chloro-1,3,4,8-tetrahydro-5-methyl-8-oxo-pyrrolo[4,3,2-de]quinolinium trifluoroacetate], the figures for the IC50 in data set [1] (setting [7]), in data set [1] (setting [8]) and in data set [1] (setting [9]) were 5.1 µg/mL, 10 µg/mL and 1.29 µg/mL, respectively. In the data set on MIP / SW620 (setting [10]), the “MIP/SW620 IC50 ratio” value was 0.7. Also, the “HCT15/SKBR3 IC50 ratio” value in the data set with HCT15 / SKBR3 (setting [5]) turned out to be 1.5. For the same compound, the “CaCO2/CX1 IC50 ratio” value in the data set on CaCo2 / CX1 amounted to 0.25.

As to `C[N+]1=C2C(Br)=C(N)C(=O)c3[nH]c(Br)c(c32)CC1` [Example 13, 7-Amino-2,6-dibromo-1,3,4,8-tetrahydro-5-methyl-8-oxo-pyrrolo[4,3,2-de]quinolinium trifluoroacetate], the IC50 came out at 2.4 µg/mL in data set [1] (setting [7]), 7.71 µg/mL in data set [1] (setting [8]) and 0.4 µg/mL in data set [1] (setting [9]). Moreover, in data set [2] (setting [4]), the “DDP/S IC50 ratio” value was found to be 1.1. Further, the “MIP/SW620 IC50 ratio” value with MIP / SW620 (setting [10]) turned out to be 0.9. In the data set on HCT15 / SKBR3 (setting [5]), the “HCT15/SKBR3 IC50 ratio” value came out at 1.7. Moreover, in the data set on CaCo2 / CX1, the “CaCO2/CX1 IC50 ratio” value amounted to 0.7.

With `Cn1cc2c3c1C(=O)C(N)=C(Br)C3=NCC2` [Example 14, 7-Amino-6-bromo-3,4-dihydro-1-methyl-8-oxo-pyrrolo [4,3,2-de]quinolin-8 (1H) -one trifluoroacetate], the IC50 is 2.3 µg/mL in data set [1] (setting [7]), 3.54 µg/mL in data set [1] (setting [8]) and 0.84 µg/mL in data set [1] (setting [9]). In addition, the “DDP/S IC50 ratio” value in data set [2] (setting [6]) was determined as 1.2. For the same compound, the “MIP/SW620 IC50 ratio” value in the data set on MIP / SW620 (human, mip/sw620 cells) worked out at 1.4. Further, in the data set with HCT15 / SKBR3 (human, hct15/skbr3 cells), the “HCT15/SKBR3 IC50 ratio” value is 2.1. Moreover, in the data set on CaCo2 / CX1, the “CaCO2/CX1 IC50 ratio” value was determined as 0.8.

`COC(=O)CCNC1=CC2=[N+](C)CCc3cn(Cc4ccccc4)c(c32)C1=O` [Example 25, 1,3,4,8-tetrahydro-7-[(3-methoxy-3-oxopropyl)amino]-5-methyl-8-oxo-1-(phenylmethyl)pyrrolo[4,3,2-de]quinolinium trifluoroacetate]: the IC50 in data set [1] (setting [7]) came out at 13 µg/mL; in data set [1] (setting [8]), 50 µg/mL; in data set [1] (setting [9]), 1.32 µg/mL. Also, the “DDP/S IC50 ratio” value in data set [2] (setting [4]) was 6.1. Further, in the data set on HCT15 / SKBR3 (setting [5]), the “HCT15/SKBR3 IC50 ratio” value is listed as 23.5. The “CaCO2/CX1 IC50 ratio” value with CaCo2 / CX1 is listed as 7.3.

For the compound `COC(=O)CCNC1=CC2=[N+](C)CCc3cn(CCC(=O)OC)c(c32)C1=O` [Example 27, 1,3,4,8-Tetrahydro-1-(3-methoxy-3-oxopropyl)-7-[7-[(3-methoxy-3-oxopropyl)amino]-5-methyl-8-oxo-pyrrolo[4,3,2-de]quinolinium trifluoroacetate], the IC50 is 15 µg/mL in data set [1] (setting [7]), 50 µg/mL in data set [1] (setting [8]) and 0.17 µg/mL in data set [1] (setting [9]). Further, the “DDP/S IC50 ratio” value in data set [2] (setting [4]) came to 5.1. The “HCT15/SKBR3 IC50 ratio” value in the data set with HCT15 / SKBR3 (setting [5]) was 288.0. The “CaCO2/CX1 IC50 ratio” value in the data set on CaCo2 / CX1 is recorded as 15.1.

As for `Cn1cc2c3c1C(=O)C(N)=CC3=[N+](C)CC2` [Example 29, 7-Amino-1,3,4,8-tetrahydro-1,5-dimethyl-8-oxo-pyrrolo[4,3,2-de] quinolinium trifluoroacetate], the IC50 in data set [1] (48 h, read-out: AVG IC50) came to 2.6 µg/mL; in data set [1] (48 h, read-out: MAX IC50) it was 5.7 µg/mL; in data set [1] (48 h, read-out: MIN IC50), 1.03 µg/mL. The “MIP/SW620 IC50 ratio” value with MIP / SW620 (human, mip/sw620 cells) is reported as 1.8. Moreover, the “HCT15/SKBR3 IC50 ratio” value in the data set with HCT15 / SKBR3 (human, hct15/skbr3 cells) was 1.8. In addition, in the data set with CaCo2 / CX1, the “CaCO2/CX1 IC50 ratio” value was found to be 2.9.

As to `Cn1cc2c3c1C(=O)C(N)=CC3=[N+](Cc1ccccc1)CC2` [Example 32, 7-Amino-1,3,4,8-tetrahydro-1-methyl-8-oxo-5-(phenylmethyl)-pyrrolo[4,3,2-de]quinolinium trifluoroacetate], the IC50 in data set [1] (48 h, read-out: AVG IC50) was found to be 2.1 µg/mL; in data set [1] (48 h, read-out: MAX IC50) it was 10 µg/mL; in data set [1] (48 h, read-out: MIN IC50), 0.37 µg/mL. The “MIP/SW620 IC50 ratio” value in the data set on MIP / SW620 (human, mip/sw620 cells) turned out to be 0.9. In the data set with HCT15 / SKBR3 (human, hct15/skbr3 cells), the “HCT15/SKBR3 IC50 ratio” value came to 3.5. Also, in the data set with CaCo2 / CX1, the “CaCO2/CX1 IC50 ratio” value is listed as 1.8.

In the case of `CC(C)NC1=CC2=[N+](C)CCc3c[nH]c(c32)C1=O.O=C([O-])C(F)(F)F` [Example 40, 1,3,4,8-Tetrahydro-5-methyl-7-[(2-methylethyl)amino]-8-oxo-pyrrolo[4,3,2-de]quinolinium trifluoroacetate], the “AVG IC50” value in data set [1] (setting [3]) came to 5.8 µg/mL. Besides, the “MAX IC50” value in data set [1] (least sensitive cell line, 48 hours) was 50 µg/mL. In addition, the “MIN IC50” value in data set [1] (most sensitive cell line, 48 hours) was found to be 0.25 µg/mL. Besides, the “DDP/S IC50 ratio” value in data set [2] (setting [4]) is recorded as 1.3. The “HCT15/SKBR3 IC50 ratio” value in the data set with HCT15 / SKBR3 (setting [5]) stood at 102.0. In the data set with CaCo2 / CX1, the “CaCO2/CX1 IC50 ratio” value was determined as 8.3.

Consider `C[N+]1=C2C=C(NCc3ccc(C(=O)O)cc3)C(=O)c3[nH]cc(c32)CC1` [Example 45, 7-[[(4-Carboxylphenyl)methyl]amino]-1,3,4,8-tetrahydro-5-methyl-8-oxo-pyrrolo[4,3,2-de]quinolinium trifluoroacetate], for which the IC50 stood at 33 µg/mL in data set [1] (setting [7]), 50 µg/mL in data set [1] (setting [8]) and 8.99 µg/mL in data set [1] (setting [9]). Moreover, the “DDP/S IC50 ratio” value in data set [2] (setting [4]) is 1.2. Also, the “MIP/SW620 IC50 ratio” value in the data set on MIP / SW620 (setting [10]) turned out to be 1.2. Also, the “HCT15/SKBR3 IC50 ratio” value in the data set on HCT15 / SKBR3 (setting [5]) is 1.6.

As for `COc1ccc(CNC2=CC3=[N+](C)CCc4c[nH]c(c43)C2=O)cc1` [Example 48, 1,3,4,8-Tetrahydro-7-[[(4-methoxyphenyl)methyl]amino]-5-methyl-8-oxo-pyrrolo[4,3,2-de]quinolinium trifluoroacetate], the IC50 is 7.7 µg/mL in data set [1] (setting [7]), 50 µg/mL in data set [1] (setting [8]) and 0.02 µg/mL in data set [1] (setting [9]). In addition, the “DDP/S IC50 ratio” value in data set [2] (setting [4]) turned out to be 11.0. Besides, the “HCT15/SKBR3 IC50 ratio” value in the data set with HCT15 / SKBR3 (setting [5]) was found to be 2090.0. Besides, in the data set on CaCo2 / CX1, the “CaCO2/CX1 IC50 ratio” value was 38.0.

On to `Cn1cc2c3c1C(=O)C(=O)C=C3NCC2.O=C(O)C(F)(F)F` [Example 51, 1,3,4,5-Tetrahydro-1-methyl-pyrrolo[4,3,2-de]quinoline-7,8-dione trifluoroacetate], for which the figures for the IC50 in data set [1] (setting [7]), in data set [1] (setting [8]) and in data set [1] (setting [9]) were 48 µg/mL, 50 µg/mL and 35.6 µg/mL, respectively.

As for `Cc1[nH]c2c(c1C)C1=[N+](C)CCc3c[nH]c(c31)C2=O` [Example 54, 3,5,6,7-Tetrahydro-1,8,9-trimethyl-6-oxo-2M-dipyrrolo[4,3,2-de:2',3'-h]quinolinium trifluoroacetate], the IC50 was determined as 18 µg/mL in data set [1] (setting [7]), 50 µg/mL in data set [1] (setting [8]) and 2.26 µg/mL in data set [1] (setting [9]). Also, in data set [2] (setting [4]), the “DDP/S IC50 ratio” value is 1.2. Further, the “HCT15/SKBR3 IC50 ratio” value in the data set on HCT15 / SKBR3 (setting [5]) came out at 3.9. In the data set on CaCo2 / CX1, the “CaCO2/CX1 IC50 ratio” value was found to be 4.2.
